What was measured:
RPTEC/TERT1 cells = test: LAMP-2 immunofluorescence (KE1, disturbance of lysosomal function); type: cell-based, human; settings: for BMC10, KE1: in vitro POD from KE dose-response, LAMP-2 intensity, RPTEC/TERT1, 24 h treatment, n = 3 independent experiments; for MOE, lowest across KEs: in vitro PODs in RPTEC/TERT1 vs human plasma concentrations at therapeutic doses; for MOE, KE1: margin of exposure: BMC10 in RPTEC/TERT1 vs human plasma/serum concentration (cmax or css)
Description: (§1) For immunocytochemistry experiments, cells were seeded into 8-well chamber slides (Ibidi) at a density of 140 cells per µL in 300 µL growth medium and were allowed to grow for 48 h (NRK-52E) or 10 d (RPTEC/TERT1) respectively. For treatment, stock solutions (1,000 µM) of compounds dissolved in growth medium were freshly prepared and serial dilutions were made before exposure of cells for 24 h. After treatment, cells were washed twice with 150 µL PBS and fixed with 150 µL 4% paraformaldehyde in 1 x PBS for 10 min at room temperature. After fixation, cells were washed 10 min with 150 µL PBS on an orbital shaker followed by permeabilization with 150 µL 0.2% Triton X-100 in 1 x PBS for 5 min at room temperature on an orbital shaker. The permeabilized cells were washed twice with 1 x PBS (150 µL) for 10 min at room temperature on an orbital shaker and then incubated with 150 µL 5% BSA dissolved in 1 x PBS for 1 h at room temperature to block unspecific binding sites. After blocking, 100 µL primary antibody diluted 1:100 in 1% BSA in 1 x PBS were directly pipetted onto the cells and incubated overnight at 4°C. The following antibodies were employed for NRK-52E cells: Anti-LAMP-1 monoclonal IgG1 kappa mouse antibody (Santa Cruz; sc-20011), anti-Cathepsin D mouse monoclonal IgG2 kappa antibody (Santa Cruz; sc-377124); for RPTEC/TERT1 cells: Anti-LAMP-2 monoclonal mouse antibody (Santa Cruz; sc-18822), anti-Cathepsin D mouse monoclonal IgG2b kappa (Novus Biologicals; NBP1-04278); for both cell lines anti-megalin mouse monoclonal IgG1 antibody (Santa Cruz, sc-515772).
After incubation with primary antibody, cells were washed three times for 15 min with 0.2% Tween in 1 x PBS (150 µL) on an orbital shaker. Cells were incubated for 1 h at room temperature with 100 µL CFL 488-conjugated mouse IgG kappa binding protein (1:50) (m-IgGκ BP-CFL 488; Santa Cruz, sc-516176). After incubation the cells were washed three times for 15 min with 0.2% Tween in 1 x PBS on an orbital shaker and once with 150 µL sterile water. Phalloidin-tetramethylrhodamine B isothiocyanate (TRITC) was used to stain the cytoskeleton and was diluted in 100% methanol to a stock concentration of 0.1 mg/ml and further diluted in 1 x PBS to a working concentration of 0.095 µM. After cells were washed once with 1 x PBS for 10 min at room temperature 150 µL phalloidin-TRITC working solution was added and the cells were incubated on an orbital shaker at room temperature for 60–90 min. After incubation, phalloidin-TRITC solution was aspirated, and the cells were washed once with 1 x PBS. Chamber slides were allowed to dry for 15 min at room temperature. To preserve fluorescence 50–100 µL DAPI mounting medium (Vectashield®; Vectorlab, Biozol) was added to the cells and chamber slides were stored at 4°C in the dark until image acquisition.
Images were taken with a TCS SP5 II confocal microscope with an HCX PL APO lambda blue 63.0 × 1.40 OIL UV objective (Leica Microsystems, Wetzlar, GER) (n = 10 cells/treatment group). The maximum excitation and emission settings for image acquisition were the following: Vectashield® antifade mounting medium with DAPI (λex 360 nm & λem 460 nm), for CFL 488-conjugated mouse IgG kappa binding protein (λex 490 nm & λem 525 nm) and phalloidin-TRITC (λex 545 nm & λem 573 nm). Before quantification, images were blinded and randomized. Quantification of fluorescence intensity was performed using NIH Image® software. Using the tool “Plot Profile” we generated a two-dimensional graph of the intensity of pixels along a reference line (6.35 µm) drawn across the cytoplasm of cells. The mean values of the pixel intensities were automatically calculated by the software and imported in Excel for further processing.

NRK-52E cells = test: LAMP-1 immunofluorescence (KE1, disturbance of lysosomal function); type: cell-based, rat; settings: for BMC10, KE1: in vitro POD from KE dose-response, LAMP-1 intensity, NRK-52E, 24 h treatment, n = 3; for MOE, KE1: margin of exposure: BMC10 in NRK-52E vs rat plasma/serum concentration (cmax or css)
Description: as §1
After incubation with primary antibody, cells were washed three times for 15 min with 0.2% Tween in 1 x PBS (150 µL) on an orbital shaker. Cells were incubated for 1 h at room temperature with 100 µL CFL 488-conjugated mouse IgG kappa binding protein (1:50) (m-IgGκ BP-CFL 488; Santa Cruz, sc-516176). After incubation the cells were washed three times for 15 min with 0.2% Tween in 1 x PBS on an orbital shaker and once with 150 µL sterile water. […] To preserve fluorescence 50–100 µL DAPI mounting medium (Vectashield®; Vectorlab, Biozol) was added to the cells and chamber slides were stored at 4°C in the dark until image acquisition.
Images were taken with a TCS SP5 II confocal microscope with an HCX PL APO lambda blue 63.0 × 1.40 OIL UV objective (Leica Microsystems, Wetzlar, GER) (n = 10 cells/treatment group). […] Before quantification, images were blinded and randomized. Quantification of fluorescence intensity was performed using NIH Image® software. […] The mean values of the pixel intensities were automatically calculated by the software and imported in Excel for further processing.

| Substance | BMC10, KE1 (RPTEC/TERT1 cells) | MOE, lowest across KEs (RPTEC/TERT1 cells) | MOE, KE1 (RPTEC/TERT1 cells) | BMC10, KE1 (NRK-52E cells) | MOE, KE1 (NRK-52E cells) |
| --- | --- | --- | --- | --- | --- |
| Colistin | 4.3 µM | 0.5 | 0.5 – 10.2 | 36.2 µM | 3.5 – 7.1 |
| Polymyxin B | 4.2 µM | 1 | 1.0 - 7.4 | 13.7 µM | 1.9 – 2.0 |

From article PMC9061999, “Application of the Adverse Outcome Pathway Concept to In Vitro Nephrotoxicity Assessment: Kidney Injury due to Receptor-Mediated Endocytosis and Lysosomal Overload as a Case Study” (Frontiers in Toxicology, 2022)
